PubChem BioAssay AID1259407 (Chemical Carcinogenesis Research Information System (CCRIS), 2018)
Activity calls are given as the source filed them. No rule for the calls is given here.

System: CCRIS mutagenicity, Ames/micronucleus/aberration tests
Test: CCRIS mutagenicity studies
Source text: The CCRIS database contains chemical records with carcinogenicity, mutagenicity, tumor promotion, and tumor inhibition test results. It was developed by the National Cancer Institute (NCI). Data are derived from studies cited in primary journals, current awareness tools, NCI reports, and other sources. Test results have been reviewed by experts in carcinogenesis and mutagenesis.
CCRIS provides historical information from the years 1985 - 2011. It is no longer updated.
This is an archive assay for CCRIS mutagenicity studies.

[1] = Test System: AMES SALMONELLA TYPHIMURIUM, Strain/Indicator: TA100, Metabolic Activation: NONE, Method: STANDARD PLATE
[2] = Test System: AMES SALMONELLA TYPHIMURIUM, Strain/Indicator: TA1537, Metabolic Activation: NONE, Method: STANDARD PLATE
[3] = Test System: AMES SALMONELLA TYPHIMURIUM, Strain/Indicator: TA1538, Metabolic Activation: NONE, Method: STANDARD PLATE
[4] = Test System: AMES SALMONELLA TYPHIMURIUM, Strain/Indicator: TA98, Metabolic Activation: NONE, Method: PREINCUBATION
[5] = Test System: AMES SALMONELLA TYPHIMURIUM, Strain/Indicator: TA98, Metabolic Activation: NONE, Method: STANDARD PLATE
[6] = Test System: AMES SALMONELLA TYPHIMURIUM, Strain/Indicator: TA98, Metabolic Activation: RAT, LIVER, S-9, AROCLOR 1254, Method: STANDARD PLATE
[7] = Test System: AMES SALMONELLA TYPHIMURIUM, Strain/Indicator: TA100, Metabolic Activation: NONE, Method: PREINCUBATION
[8] = Test System: AMES SALMONELLA TYPHIMURIUM, Strain/Indicator: TA100, Metabolic Activation: RAT, LIVER, S-9, AROCLOR 1254, Method: STANDARD PLATE
[9] = Test System: AMES SALMONELLA TYPHIMURIUM, Strain/Indicator: TA1535, Metabolic Activation: NONE, Method: PREINCUBATION
[10] = Test System: AMES SALMONELLA TYPHIMURIUM, Strain/Indicator: TA1537, Metabolic Activation: NONE, Method: PREINCUBATION

Which results are given for `CN(C)CCn1cc[n+](C)c1/C=N/O`?
mutagenic call (Test System: AMES SALMONELLA TYPHIMURIUM, Strain/Indicator: TA97, Metabolic Activation: NONE, Method: STANDARD PLATE): inactive; negative; mutagenic call (Test System: AMES SALMONELLA TYPHIMURIUM, Strain/Indicator: TA97, Metabolic Activation: S-9, Method: STANDARD PLATE): inactive; negative; mutagenic call [1]: inactive; negative; mutagenic call (Test System: AMES SALMONELLA TYPHIMURIUM, Strain/Indicator: TA100, Metabolic Activation: S-9, Method: STANDARD PLATE): inactive; negative; mutagenic call (Test System: AMES SALMONELLA TYPHIMURIUM, Strain/Indicator: TA104, Metabolic Activation: NONE, Method: STANDARD PLATE): inactive; negative; mutagenic call (Test System: AMES SALMONELLA TYPHIMURIUM, Strain/Indicator: TA104, Metabolic Activation: S-9, Method: STANDARD PLATE): inactive; negative; mutagenic call [2]: inactive; negative; mutagenic call (Test System: AMES SALMONELLA TYPHIMURIUM, Strain/Indicator: TA1537, Metabolic Activation: S-9, Method: STANDARD PLATE): inactive; negative; mutagenic call [3]: inactive; negative; mutagenic call (Test System: AMES SALMONELLA TYPHIMURIUM, Strain/Indicator: TA1538, Metabolic Activation: S-9, Method: STANDARD PLATE): inactive; negative

Which results are given for `CCN1CCN(C(=O)N[C@@H](C(=O)N[C@@H]2C(=O)N3[C@@H]2SC(C)(C)[C@@H]3C(=O)O)c2ccccc2)C(=O)C1=O`?
mutagenic call (Test System: AMES SALMONELLA TYPHIMURIUM, Strain/Indicator: TA98, Metabolic Activation: MOUSE, IN VIVO, Method: HOST-MEDIATED): inactive; negative; mutagenic call [4]: inactive; negative; mutagenic call [5]: inactive; negative; mutagenic call [6]: inactive; negative; mutagenic call (Test System: AMES SALMONELLA TYPHIMURIUM, Strain/Indicator: TA98, Metabolic Activation: S-9, Method: PREINCUBATION): inactive; negative; mutagenic call (Test System: AMES SALMONELLA TYPHIMURIUM, Strain/Indicator: TA100, Metabolic Activation: MOUSE, IN VIVO, Method: HOST-MEDIATED): inactive; negative; mutagenic call [7]: inactive; negative; mutagenic call [1]: inactive; negative; mutagenic call [8]: inactive; negative; mutagenic call (Test System: AMES SALMONELLA TYPHIMURIUM, Strain/Indicator: TA100, Metabolic Activation: S-9, Method: PREINCUBATION): inactive; negative; mutagenic call (Test System: AMES SALMONELLA TYPHIMURIUM, Strain/Indicator: TA1535, Metabolic Activation: MOUSE, IN VIVO, Method: HOST-MEDIATED): inactive; negative; mutagenic call [9]: inactive; negative; mutagenic call (Test System: AMES SALMONELLA TYPHIMURIUM, Strain/Indicator: TA1535, Metabolic Activation: NONE, Method: STANDARD PLATE): inactive; negative; mutagenic call (Test System: AMES SALMONELLA TYPHIMURIUM, Strain/Indicator: TA1535, Metabolic Activation: RAT, LIVER, S-9, AROCLOR 1254, Method: STANDARD PLATE): inactive; negative; mutagenic call (Test System: AMES SALMONELLA TYPHIMURIUM, Strain/Indicator: TA1535, Metabolic Activation: S-9, Method: PREINCUBATION): inactive; negative; mutagenic call (Test System: AMES SALMONELLA TYPHIMURIUM, Strain/Indicator: TA1537, Metabolic Activation: MOUSE, IN VIVO, Method: HOST-MEDIATED): inactive; negative; mutagenic call [10]: inactive; negative; mutagenic call [2]: inactive; negative; mutagenic call (Test System: AMES SALMONELLA TYPHIMURIUM, Strain/Indicator: TA1537, Metabolic Activation: RAT, LIVER, S-9, AROCLOR 1254, Method: STANDARD PLATE): inactive; negative; mutagenic call (Test System: AMES SALMONELLA TYPHIMURIUM, Strain/Indicator: TA1537, Metabolic Activation: S-9, Method: PREINCUBATION): inactive; negative; mutagenic call [3]: inactive; negative; mutagenic call (Test System: AMES SALMONELLA TYPHIMURIUM, Strain/Indicator: TA1538, Metabolic Activation: RAT, LIVER, S-9, AROCLOR 1254, Method: STANDARD PLATE): inactive; negative; mutagenic call (Test System: E. COLI, Strain/Indicator: WP2 UVRA, Metabolic Activation: NONE, Method: PREINCUBATION): inactive; negative; mutagenic call (Test System: E. COLI, Strain/Indicator: WP2 UVRA, Metabolic Activation: NONE, Method: STANDARD PLATE): inactive; negative; mutagenic call (Test System: E. COLI, Strain/Indicator: WP2 UVRA, Metabolic Activation: RAT, LIVER, S-9, AROCLOR 1254, Method: STANDARD PLATE): inactive; negative; mutagenic call (Test System: E. COLI, Strain/Indicator: WP2 UVRA, Metabolic Activation: S-9, Method: PREINCUBATION): inactive; negative

How did the mutagenic call [5] turn out when `O=[N+]([O-])c1nc2ccccc2[nH]1` was run?
Its mutagenic call is “active; positive”.

For `C=CCNCC=C`, which mutagenic call (Test System: AMES SALMONELLA TYPHIMURIUM, Strain/Indicator: TA98, Metabolic Activation: HAMSTER, LIVER, S-9, AROCLOR 1254 (10%), Method: PREINCUBATION) is on record?
The mutagenic call was “inactive; negative”.

And the mutagenic call [4]?
Its mutagenic call is “inactive; negative”.

And the mutagenic call (Test System: AMES SALMONELLA TYPHIMURIUM, Strain/Indicator: TA98, Metabolic Activation: RAT, LIVER, S-9, AROCLOR 1254 (10%), Method: PREINCUBATION)?
Its mutagenic call is “inactive; negative”.

And the mutagenic call (Test System: AMES SALMONELLA TYPHIMURIUM, Strain/Indicator: TA100, Metabolic Activation: HAMSTER, LIVER, S-9, AROCLOR 1254 (10%), Method: PREINCUBATION)?
Its mutagenic call is “inactive; negative”.

What about the mutagenic call [7] of the same molecule?
The mutagenic call was “inactive; negative”.

And the mutagenic call (Test System: AMES SALMONELLA TYPHIMURIUM, Strain/Indicator: TA100, Metabolic Activation: RAT, LIVER, S-9, AROCLOR 1254 (10%), Method: PREINCUBATION)?
Its mutagenic call is “inactive; negative”.

What about the mutagenic call (Test System: AMES SALMONELLA TYPHIMURIUM, Strain/Indicator: TA1535, Metabolic Activation: HAMSTER, LIVER, S-9, AROCLOR 1254 (10%), Method: PREINCUBATION) of the same molecule?
Its mutagenic call is “inactive; negative”.

What about the mutagenic call [9] of the same molecule?
The mutagenic call was “inactive; negative”.

What about the mutagenic call (Test System: AMES SALMONELLA TYPHIMURIUM, Strain/Indicator: TA1535, Metabolic Activation: RAT, LIVER, S-9, AROCLOR 1254 (10%), Method: PREINCUBATION) of the same molecule?
Its mutagenic call is “inactive; negative”.

And the mutagenic call (Test System: AMES SALMONELLA TYPHIMURIUM, Strain/Indicator: TA1537, Metabolic Activation: HAMSTER, LIVER, S-9, AROCLOR 1254 (10%), Method: PREINCUBATION)?
Its mutagenic call is “inactive; negative”.

And the mutagenic call [10]?
Its mutagenic call is “inactive; negative”.

What about the mutagenic call (Test System: AMES SALMONELLA TYPHIMURIUM, Strain/Indicator: TA1537, Metabolic Activation: RAT, LIVER, S-9, AROCLOR 1254 (10%), Method: PREINCUBATION) of the same molecule?
The mutagenic call was “inactive; negative”.

`Cc1cc(C)cc(OC(=O)N(C)N=O)c1` was tested. Which mutagenic call (Test System: E. COLI WP2, Strain/Indicator: WP2, Metabolic Activation: NONE, Method: STANDARD PLATE) did it give?
Its mutagenic call is “active; positive”.

`Clc1cc2ccccc2c2ccccc12` was tested. Which mutagenic call [5] did it give?
Its mutagenic call is “inactive; negative”.

And the mutagenic call [6]?
The mutagenic call was “active; positive”.

What about the mutagenic call [1] of the same molecule?
The mutagenic call was “inactive; negative”.

And the mutagenic call [8]?
The mutagenic call was “inactive; negative”.

`CCC12OC1(C(=O)OC)C(=O)OC2C` (configuration not stated) was tested. Which mutagenic call (Test System: AMES SALMONELLA TYPHIMURIUM, Strain/Indicator: TA98, Metabolic Activation: NONE, Method: DISK ASSAY) did it give?
The mutagenic call was “inactive; negative”.

What about the mutagenic call [5] of the same molecule?
Its mutagenic call is “inactive; negative”.

And the mutagenic call (Test System: AMES SALMONELLA TYPHIMURIUM, Strain/Indicator: TA98, Metabolic Activation: RAT, LIVER, S-9, AROCLOR 1254, Method: DISK ASSAY)?
Its mutagenic call is “inactive; negative”.

What about the mutagenic call [6] of the same molecule?
Its mutagenic call is “active; positive”.

How did the mutagenic call [5] turn out when `O=[N+]([O-])c1cc2c(cc1Cl)Oc1cc(Cl)c(Cl)cc1O2` was run?
The mutagenic call was “active; positive”.

And the mutagenic call (Test System: AMES SALMONELLA TYPHIMURIUM, Strain/Indicator: TA98, Metabolic Activation: RAT, LIVER, S-9, AROCLOR, Method: STANDARD PLATE)?
Its mutagenic call is “active; positive”.

What about the mutagenic call [1] of the same molecule?
The mutagenic call was “active; positive”.

And the mutagenic call (Test System: AMES SALMONELLA TYPHIMURIUM, Strain/Indicator: TA100, Metabolic Activation: RAT, LIVER, S-9, AROCLOR, Method: STANDARD PLATE)?
Its mutagenic call is “active; positive”.
